# Source: US7572768B2, “Methods for identifying compounds for regulating muscle mass or function using corticotropin releasing factor receptors” (priority 2001, dated 2009)
# How the values were obtained:
# [1] = system: glucocorticoid-induced muscle atrophy; experiment: mouse glucocorticoid-induced atrophy model; assay type: in vivo; conditions: male mice, dexamethasone 1.2 mg/kg/d in drinking water, 0.1-1.0 mg/kg/d by osmotic minipump, nine days
# Protocol: Legend: A—water only with no dexamethasone included in drinking water (non-atrophied control); B—water+dexamethasone (atrophied control); C—sauvagine (0.1 mg/kg/d)+dexamethasone; D—sauvagine (0.3 mg/kg/d)+dexamethasone; E—sauvagine (1.0 mg/kg/d)+dexamethasone; *—p≦0.05 compared to water; #—p≦0.05 compared to water+dexamethasone. Following the addition of the glucocorticoid, dexamethasone, to the drinking water (1.2 mg/kg/d), male mice were dosed with the above indicated agents or vehicle control (physiological saline) by continuous infusion using an Alzet osmotic minipump at 5 μl/hr until the end of the experimental period (without additional theophylline). The daily delivered dose of sauvagine is as indicated above. Minipump implantation was performed at the time of initiation of dexamethasone exposure. Nine days following the initiation of dosing sauvagine, the medial gastrocnemius and tibialis anterior muscles were removed and weighed to determine the degree of atrophy.
# The glucocorticoid-induced atrophy model involves the administration of a glucocorticoid to the test animal, e.g., 1.2 mg/kg/day of dexamethasone in the drinking water. […] At various times following glucocorticoid administration, the extent of atrophy in the affected muscles is analyzed as described above for the denervation model.
# [2] = system: denervation-induced atrophy of skeletal muscle; experiment: mouse sciatic nerve denervation atrophy model; assay type: in vivo
# Protocol: Legend: A—physiological saline (control); B—sauvagine (0.01 mg/kg)+theophylline; C—sauvagine (0.03 mg/kg)+theophylline; D—sauvagine (0.1 mg/kg)+theophylline; E—sauvagine (1.0 mg/kg)+theophylline; *—p≦0.05 compared to saline. Following denervation of the right sciatic nerve, male mice were injected subcutaneously in the midscapular region twice daily with sauvagine, at the doses indicated above or vehicle control (physiological saline) for nine days. Sauvagine was co-administered with 30 mg/kg theophylline. On day nine, the medial gastrocnemius muscle was removed and weighed to determine the degree of atrophy.
# Legend: A—water (control); B—sauvagine (0.1 mg/kg/d); C—sauvagine (0.3 mg/kg/d); D—sauvagine (1.0 mg/kg/d); *—p≦0.05 compared to water. Following denervation of the right sciatic nerve, male mice were dosed with either sauvagine or vehicle control (physiological saline) by continuous infusion using an Alzet osmotic minipump at 5 μl/hr until the end of the experimental period (without additional theophylline). The daily delivered dose of sauvagine is indicated above. Minipump implantation was performed at the time of sciatic nerve denervation. On day nine the tibialis anterior muscle was removed and weighed to determine the degree of atrophy.
# Legend: A—water (control); B—sauvagine (1 mg/kg/d); C—urocortin (1.0 mg/kg/d); *—p≦0.05 compared to water. Following denervation of the right sciatic nerve, male mice were dosed with the above indicated agents or vehicle control (physiological saline) by continuous infusion using an Alzet osmotic minipump at 5 μl/hr until the end of the experimental period (without additional theophylline). The daily delivered dose of the agents is indicated above. Minipump implantation was performed at the same time as the sciatic nerve denervation. On day nine the tibialis anterior muscle was removed and weighed to determine the degree of atrophy.
# Legend: A-C—wild-type mice; D-F—CRF2R knockout mice. A and D—water (control); B and E—sauvagine (0.3 mg/kg/d); C and F—sauvagine (1.0 mg/kg/d); *—p≦0.05 compared to saline. Following denervation of the right sciatic nerve, female wild-type and CRF2R knockout mice were dosed with sauvagine or vehicle control by continuous infusion using an Alzet osmotic minipump at 5 μl/hr for nine days at the daily delivered dose indicated above. On day nine, the tibialis anterior muscle was removed and weighed to determine the degree of atrophy.
# The sciatic nerve denervation atrophy model involves anesthetizing the animal followed by the surgical removal of a short segment of either the right or left sciatic nerve, e.g., in mice the sciatic nerve is isolated approximately at the midpoint along the femur and a 3-5 mm segment is removed. This denervates the lower hind limb musculature resulting in atrophy of these muscles. Typically, innervation to the biceps femoris is left intact to provide satisfactory motion of the knee for virtually normal ambulation. Typically, in untreated animals, muscle mass of the denervated muscles is reduced 30-50% ten days following denervation. Following denervation, test compounds are administered e.g., by injection or by continuous infusion, e.g., via implantation of an osmotic minipump (e.g., Alzet, Palo Alto, Calif.), to determine their effect on denervation induced skeletal muscle atrophy. At various times following denervation, the animals are euthanized and lower leg muscles are dissected rapidly from both the denervated and nondenervated legs, the muscles, cleaned of tendons and connective tissue, are weighed. The extent of atrophy in the affected muscles is analyzed, for example, by measuring muscle mass, muscle cross-sectional area, myofiber cross-sectional area or contractile protein content.
smiles,measurement,setting,value
CC[C@H](C)[C@H](NC(=O)[C@@H](NC(=O)[C@H](CC(=O)O)NC(=O)[C@H](CC(C)C)NC(=O)[C@H](CC(C)C)NC(=O)[C@H](CC(C)C)NC(=O)[C@H](CCCNC(=N)N)NC(=O)[C@H](CC(N)=O)NC(=O)[C@H](CC(N)=O)NC(=O)[C@H](C)NC(=O)[C@H](C)NC(=O)[C@H](CCC(N)=O)NC(=O)[C@H](CCC(N)=O)NC(=O)[C@H](CCCCN)NC(=O)[C@H](CCC(=O)O)NC(=O)[C@H](CCCCN)NC(=O)[C@H](CCC(=O)O)NC(=O)[C@H](CCC(N)=O)NC(=O)[C@H](CCCCN)NC(=O)[C@H](CCC(=O)O)NC(=O)[C@@H](NC(=O)[C@H](CCC(=O)O)NC(=O)[C@@H](NC(=O)[C@H](CCSC)NC(=O)[C@H](CCCCN)NC(=O)[C@H](CCCNC(=N)N)NC(=O)[C@H](CC(C)C)NC(=O)[C@H](CC(C)C)NC(=O)[C@H](CCC(=O)O)NC(=O)[C@H](CC(C)C)NC(=O)[C@H](CO)NC(=O)[C@H](CC(C)C)NC(=O)[C@H](CC(=O)O)NC(=O)[C@@H](NC(=O)[C@H](CO)NC(=O)[C@@H](NC(=O)[C@@H]1CCCN1C(=O)[C@@H]1CCCN1C(=O)CNC(=O)[C@@H]1CCC(=O)N1)[C@@H](C)CC)[C@@H](C)CC)[C@@H](C)CC)[C@@H](C)CC)[C@@H](C)O)C(N)=O [sauvagine],glucocorticoid-induced atrophy of the tibialis anterior muscle (muscle weight),[1]; FIG. 3A,inhibits glucocorticoid-induced muscle atrophy
same,glucocorticoid-induced atrophy of the medial gastrocnemius muscle (muscle weight),[1]; FIG. 3B,inhibits glucocorticoid-induced muscle atrophy
same,denervation-induced atrophy of the medial gastrocnemius muscle (muscle weight),"[2]; FIG. 1, male mice, 0.01-1.0 mg/kg s.c. twice daily + 30 mg/kg theophylline, nine days",inhibits denervation-induced atrophy
same,denervation-induced atrophy of the tibialis anterior muscle (muscle weight),"[2]; FIG. 2, male mice, 0.1-1.0 mg/kg/d continuous infusion by osmotic minipump, no theophylline, day nine",inhibits denervation-induced atrophy
same,denervation-induced atrophy of the tibialis anterior muscle (muscle weight),"[2]; FIG. 5, male mice, 1 mg/kg/d continuous infusion by osmotic minipump, no theophylline, day nine",inhibit denervation-induced atrophy
same,denervation-induced atrophy of the tibialis anterior muscle (muscle weight),"[2]; FIG. 8, female wild-type mice, 0.3 and 1.0 mg/kg/d by osmotic minipump, nine days",inhibits the atrophy
